Test results as given in ChEMBL document CHEMBL4480411, “Discovery of Second Generation RORγ Inhibitors Composed of an Azole Scaffold” (J Med Chem, 2019).

Experiments:
Cytochrome P450 2D6 = Cytochrome P450 2D6 (Homo sapiens, UniProt P10635); assay: Time-dependent inhibition of human CYP2D6; assay type: ADME
[1] = Oral bioavailability in CD(SD) rat at 3 mg/kg; assay type: ADME, organism-based; conditions: in vivo
[2] = biological target: T1, Nuclear receptor ROR-gamma (Homo sapiens, UniProt P51449); assay: Inhibition of human GAL4-fused RORgamma LBD transcriptional activity expressed in CHOK1 cells after 2 days by luciferase reporter gene assay; assay type: cell-based
T1 sequence (P51449 whole entry): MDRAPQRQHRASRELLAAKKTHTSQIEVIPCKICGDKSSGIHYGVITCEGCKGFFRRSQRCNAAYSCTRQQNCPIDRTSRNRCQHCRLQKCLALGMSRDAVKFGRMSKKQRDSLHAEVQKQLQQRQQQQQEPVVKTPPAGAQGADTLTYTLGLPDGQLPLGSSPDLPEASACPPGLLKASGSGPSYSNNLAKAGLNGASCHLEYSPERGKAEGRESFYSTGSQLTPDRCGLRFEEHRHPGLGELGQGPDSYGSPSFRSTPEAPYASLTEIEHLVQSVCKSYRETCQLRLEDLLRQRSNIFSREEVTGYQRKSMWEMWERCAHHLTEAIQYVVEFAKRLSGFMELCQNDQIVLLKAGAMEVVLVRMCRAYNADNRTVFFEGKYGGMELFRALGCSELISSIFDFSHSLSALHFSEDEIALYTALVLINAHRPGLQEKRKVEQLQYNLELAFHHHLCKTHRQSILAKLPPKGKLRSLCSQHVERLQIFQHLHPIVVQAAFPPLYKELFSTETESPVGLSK

[3] = Inhibition of GAL4-fused mouse LXR transcriptional activity expressed in CHOK1 cells after 2 days by luciferase reporter gene assay; assay type: cell-based; conditions: CHO-K1, 48 h
[4] = MRT in CD(SD) rat at 3 mg/kg, po; assay type: ADME, organism-based; conditions: in vivo
[5] = Lipophilicity, log D of the compound; assay type: physicochemical; conditions: octanol/water
[6] = biological target: T2, Peroxisome proliferator-activated receptor delta (Homo sapiens, UniProt Q03181); assay: Inhibition of GAL4-fused human PPARdelta transcriptional activity expressed in CHOK1 cells after 2 days by luciferase reporter gene assay; assay type: cell-based
T2 sequence (Q03181 whole entry): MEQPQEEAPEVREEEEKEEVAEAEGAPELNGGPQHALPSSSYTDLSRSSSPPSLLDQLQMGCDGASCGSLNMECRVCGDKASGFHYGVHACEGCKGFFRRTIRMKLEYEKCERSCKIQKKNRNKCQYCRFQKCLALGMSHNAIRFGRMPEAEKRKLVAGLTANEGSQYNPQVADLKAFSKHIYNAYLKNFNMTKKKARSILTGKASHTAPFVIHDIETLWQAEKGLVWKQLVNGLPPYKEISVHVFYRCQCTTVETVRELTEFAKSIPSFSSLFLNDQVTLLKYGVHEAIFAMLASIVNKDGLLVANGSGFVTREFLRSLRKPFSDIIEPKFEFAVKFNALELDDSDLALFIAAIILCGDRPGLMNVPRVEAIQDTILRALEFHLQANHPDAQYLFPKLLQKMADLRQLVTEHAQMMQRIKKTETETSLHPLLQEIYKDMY

[7] = biological target: T3, Peroxisome proliferator-activated receptor gamma (Homo sapiens, UniProt P37231); assay: Inhibition of GAL4-fused human PPARgamma transcriptional activity expressed in CHOK1 cells after 2 days by luciferase reporter gene assay; assay type: cell-based
T3 sequence (P37231 whole entry): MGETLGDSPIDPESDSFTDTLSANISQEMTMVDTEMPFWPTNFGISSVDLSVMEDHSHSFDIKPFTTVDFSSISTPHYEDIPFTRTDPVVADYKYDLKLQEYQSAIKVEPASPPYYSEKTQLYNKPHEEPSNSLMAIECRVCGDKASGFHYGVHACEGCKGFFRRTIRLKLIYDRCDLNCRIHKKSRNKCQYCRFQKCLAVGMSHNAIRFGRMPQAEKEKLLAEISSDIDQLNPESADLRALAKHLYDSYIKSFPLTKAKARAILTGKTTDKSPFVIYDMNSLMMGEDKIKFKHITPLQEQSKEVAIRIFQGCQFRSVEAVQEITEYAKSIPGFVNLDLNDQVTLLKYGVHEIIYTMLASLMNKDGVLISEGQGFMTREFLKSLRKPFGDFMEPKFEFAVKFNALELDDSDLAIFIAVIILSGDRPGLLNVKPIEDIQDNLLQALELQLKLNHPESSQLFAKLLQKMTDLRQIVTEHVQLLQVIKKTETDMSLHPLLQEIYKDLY

[8] = Terminal half life in CD(SD) rat at 1 mg/kg, iv; assay type: ADME, organism-based; conditions: in vivo, read-out: beta t1/2 (converted)
[9] = biological target: T4, Nuclear receptor ROR-alpha (Homo sapiens, UniProt P35398); assay: Inhibition of GAL4-fused human RORalpha transcriptional activity expressed in CHOK1 cells after 2 days by luciferase reporter gene assay; assay type: cell-based
T4 sequence (P35398 whole entry): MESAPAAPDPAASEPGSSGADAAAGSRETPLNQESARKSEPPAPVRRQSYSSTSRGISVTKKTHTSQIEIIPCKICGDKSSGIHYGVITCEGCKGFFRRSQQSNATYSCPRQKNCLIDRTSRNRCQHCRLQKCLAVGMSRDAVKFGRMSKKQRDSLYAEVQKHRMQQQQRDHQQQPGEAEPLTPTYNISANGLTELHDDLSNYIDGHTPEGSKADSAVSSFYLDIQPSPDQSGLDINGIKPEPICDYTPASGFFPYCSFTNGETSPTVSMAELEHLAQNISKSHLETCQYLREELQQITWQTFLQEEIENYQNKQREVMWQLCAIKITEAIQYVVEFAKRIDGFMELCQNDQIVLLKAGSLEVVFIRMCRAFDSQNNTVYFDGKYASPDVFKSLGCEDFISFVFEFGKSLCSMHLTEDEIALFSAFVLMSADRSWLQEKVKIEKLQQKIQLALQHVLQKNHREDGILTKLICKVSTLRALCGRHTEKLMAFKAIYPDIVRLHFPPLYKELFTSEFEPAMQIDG

[10] = Volume of distribution at steady state in CD(SD) rat at 1 mg/kg, iv; assay type: ADME, organism-based; conditions: in vivo, read-out: Vdss
Cytochrome P450 2C19 = Cytochrome P450 2C19 (Homo sapiens, UniProt P33261); assay: Time-dependent inhibition of human CYP2C19; assay type: ADME
Sequence of Cytochrome P450 2C19 (P33261 whole entry): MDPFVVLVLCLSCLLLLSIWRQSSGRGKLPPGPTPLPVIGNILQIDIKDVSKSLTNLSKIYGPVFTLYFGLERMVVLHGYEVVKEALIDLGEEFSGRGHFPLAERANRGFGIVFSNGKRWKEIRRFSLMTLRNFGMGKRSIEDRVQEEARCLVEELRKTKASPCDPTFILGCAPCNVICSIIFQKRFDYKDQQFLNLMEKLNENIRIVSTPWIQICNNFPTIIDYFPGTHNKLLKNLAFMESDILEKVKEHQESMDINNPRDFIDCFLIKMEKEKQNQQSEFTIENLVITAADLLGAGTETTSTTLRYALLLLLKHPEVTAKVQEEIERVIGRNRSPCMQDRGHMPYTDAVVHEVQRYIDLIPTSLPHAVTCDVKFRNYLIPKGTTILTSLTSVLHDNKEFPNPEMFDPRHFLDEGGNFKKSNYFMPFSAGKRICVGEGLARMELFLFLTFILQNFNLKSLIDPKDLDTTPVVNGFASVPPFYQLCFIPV

Sequence of Cytochrome P450 2D6 (P10635 whole entry): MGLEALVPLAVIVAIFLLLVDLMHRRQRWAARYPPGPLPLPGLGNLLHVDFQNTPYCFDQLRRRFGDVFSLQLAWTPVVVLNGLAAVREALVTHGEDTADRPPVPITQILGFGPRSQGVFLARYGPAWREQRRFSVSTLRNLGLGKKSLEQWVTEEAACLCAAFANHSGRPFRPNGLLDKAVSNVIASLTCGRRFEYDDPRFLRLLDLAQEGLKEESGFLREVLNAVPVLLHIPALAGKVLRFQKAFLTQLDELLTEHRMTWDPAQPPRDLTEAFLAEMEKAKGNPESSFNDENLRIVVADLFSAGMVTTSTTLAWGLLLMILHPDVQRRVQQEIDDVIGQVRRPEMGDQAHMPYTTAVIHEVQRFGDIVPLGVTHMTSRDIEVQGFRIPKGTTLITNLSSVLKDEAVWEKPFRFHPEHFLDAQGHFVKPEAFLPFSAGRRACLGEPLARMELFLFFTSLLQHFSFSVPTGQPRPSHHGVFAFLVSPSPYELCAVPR

Compound: CC(C)(C)Cc1cc(-c2onc([C@@H](CCC(=O)[O-])CC(=O)Nc3ccc(Cl)cc3Cl)c2C2CC2)no1.[Na+]
- IC50 (Cytochrome P450 2D6): > 50 µM
- bioavailability [1]: 72%
- EC50 [2]: 0.009 µM
- EC50 [3]: > 20 µM
- MRT [4]: 4.9 h
- logD [5]: 4.2
- EC50 [6]: > 20 µM
- EC50 [7]: > 20 µM
- half-life [8]: 4.2 h
- EC50 [9]: > 20 µM
- Vd [10]: 0.76 L/kg
- IC50 (Cytochrome P450 2C19): > 50 µM
